# Assay results reported in patent publication US20180256595A1, “AGENT FOR ENHANCING OCULAR HYPOTENSIVE EFFECT” (KOWA COMPANY, LTD., priority 2015, published 2018).
# Test: Multi-center open-label study: continuous ocular instillation of 0.4% ripasudil ophthalmic solution twice daily for 52 weeks, change in intra-ocular pressure
# Format: in vivo, patients
# Experimental: A multi-center open-label study was performed using a cohort for a monotherapy of ripasudil ophthalmic solution (173 cases) and a cohort for an additive therapy of a ripasudil ophthalmic solution in combination with another agent (181 cases) (additive therapy to a PG related drug: 62 cases, additive therapy to a β blocker: 60 cases, additive therapy to a combination drug of said PG-related drug and said β blocker: 59 cases). Patients with primary open angle glaucoma, ocular hypertension, and exfoliation glaucoma (one type of secondary glaucoma to cause aqueous humor outflow resistance due to exfoliation substances in aqueous humor or the like) having a pre-treatment intra-ocular pressure of 15 mmHg or higher or a post-treatment intra-ocular pressure of 15 mmHg or higher at the time after treatment of a PG-related drug, a β-blocker, or a combination drug of the PG-related drug and β-blocker were enrolled. A 0.4% ripasudil ophthalmic solution was dropped into an eye twice daily for 52 weeks. In order to evaluate intra-ocular pressure-lowering effect over time caused by long-term ocular instillation, the amount of change in intra-ocular pressure (least mean square value) in a second half of ocular instillation (32 weeks to 52 weeks) with respect to a first half of ocular instillation (4 weeks to 28 weeks) was examined. Statistical analysis was performed using SAS (SAS Inc., Cary, N.C.) by a least squares method based on a mixed effect model.
# [1] = 2 hours after ocular instillation, baseline intra-ocular pressure 15≤ to <18 mmHg
# [2] = 2 hours after ocular instillation, baseline intra-ocular pressure 18≤ to <−21 mmHg
# [3] = 2 hours after ocular instillation, baseline intra-ocular pressure 21≤ mmHg
# [4] = 2 hours after ocular instillation, whole cohort, least mean square value ± SE
# [5] = before ocular instillation (immediately before ocular instillation in the morning), whole cohort, least mean square value ± SE
# [6] = before ocular instillation, baseline intra-ocular pressure 15≤ to <18 mmHg
# [7] = before ocular instillation, baseline intra-ocular pressure 18≤ to <−21 mmHg
# [8] = before ocular instillation, baseline intra-ocular pressure 21≤ mmHg
compound,measurement,setting,value
"C[C@H]1CNCCCN1S(=O)(=O)c1cccc2cncc(F)c12 [Ripasudil only, (S)-(−)-1-(4-fluoro-5-isoquinolinesulfonyl)-2-methyl-1,4-homopiperazine]",Change from the baseline intra-ocular pressure First half (Week 4-28),[1],−2.86 ± 0.24 mmHg
same,Change from the baseline intra-ocular pressure Second half (Week 32-52),[1],−3.35 ± 0.25 mmHg
same,Difference (second half with respect to first half),[1],−0.49 ± 0.12 mmHg
same,Change from the baseline intra-ocular pressure First half (Week 4-28),[2],−3.24 ± 0.22 mmHg
same,Change from the baseline intra-ocular pressure Second half (Week 32-52),[2],−3.71 ± 0.22 mmHg
same,Difference (second half with respect to first half),[2],−0.47 ± 0.11 mmHg
same,Change from the baseline intra-ocular pressure First half (Week 4-28),[3],−3.55 ± 0.40 mmHg
same,Change from the baseline intra-ocular pressure Second half (Week 32-52),[3],−4.39 ± 0.41 mmHg
same,Difference (second half with respect to first half),[3],−0.84 ± 0.17 mmHg
same,Difference (second half with respect to first half),"2 hours after ocular instillation, whole cohort",−0.58 ± 0.08 mmHg
same,Change from the baseline intra-ocular pressure First half (Week 4-28),[4],−3.23 ± 0.17 mmHg
same,Change from the baseline intra-ocular pressure Second half (Week 32-52),[4],−3.81 ± 0.17 mmHg
same,Change from the baseline intra-ocular pressure Second half (Week 32-52),"2 hours after ocular instillation, whole cohort, least mean square value ± SE, listed as ripasudil",−3.81 mmHg
same,Difference (second half with respect to first half),"2 hours after ocular instillation, whole cohort, listed as ripasudil",−0.58 mmHg
same,Difference (second half with respect to first half),"before ocular instillation (immediately before ocular instillation in the morning), whole cohort",−0.49 ± 0.07 mmHg
same,Change from the baseline intra-ocular pressure First half (Week 4-28),[5],−2.12 ± 0.15 mmHg
same,Change from the baseline intra-ocular pressure Second half (Week 32-52),[5],−2.61 ± 0.15 mmHg
same,Change from the baseline intra-ocular pressure Second half (Week 32-52),"before ocular instillation (immediately before ocular instillation in the morning), whole cohort, least mean square value ± SE, listed as ripasudil",−2.61 mmHg
same,Difference (second half with respect to first half),"before ocular instillation (immediately before ocular instillation in the morning), whole cohort, listed as ripasudil",−0.49 mmHg
same,Change from the baseline intra-ocular pressure First half (Week 4-28),[6],−1.30 ± 0.25 mmHg
same,Change from the baseline intra-ocular pressure Second half (Week 32-52),[6],−1.70 ± 0.26 mmHg
same,Difference (second half with respect to first half),[6],−0.40 ± 0.12 mmHg
same,Change from the baseline intra-ocular pressure First half (Week 4-28),[7],−2.38 ± 0.16 mmHg
same,Change from the baseline intra-ocular pressure Second half (Week 32-52),[7],−2.66 ± 0.17 mmHg
same,Difference (second half with respect to first half),[7],−0.28 ± 0.11 mmHg
same,Change from the baseline intra-ocular pressure First half (Week 4-28),[8],−2.52 ± 0.34 mmHg
same,Change from the baseline intra-ocular pressure Second half (Week 32-52),[8],−3.42 ± 0.35 mmHg
same,Difference (second half with respect to first half),[8],−0.91 ± 0.16 mmHg
same,Difference (second half with respect to first half),"before ocular instillation, baseline intra-ocular pressure 21≤ mmHg, listed as ripasudil",−0.91 mmHg
same,intra-ocular pressure-lowering effect on long-term continuous administration (in words),long-term continuous ocular instillation,exhibited a further intra-ocular pressure-lowering effect by continuous ocular instillation
